Experimental data from patent US12616669B2, “Methods and chemical compositions for treating skin conditions by providing long lasting skin pH control for improving skin barrier function” (Soteri Skin, Inc., priority 2021, dated 2026).
Read-outs that look alike come from different tables or passages of the source.

Experiments:
[1] = in vivo
[2] = cited from earlier work
[3] = Evaluation of various buffering systems on human skin; details: sensitive, healthy or eczema affected skin

O=C(O)CC(O)(CC(=O)O)C(=O)O [Citric acid]
skin irritation / tolerability [1]: well tolerated on healthy and eczema affected skin

O=C(O)[C@H](O)[C@@H](O)[C@H](O)[C@H](O)CO [Gluconic acid]
skin irritation / tolerability [1]: well tolerated on healthy and eczema affected skin

N[C@@H](CC(=O)O)C(=O)O [aspartic acid]
pKa [2]: around 3.65

O=C(O)CO [glycolic acid]
skin irritation / tolerability [3]: may be irritating for sensitive skin

CC(O)C(=O)O (centres unmarked) [lactic acid]
skin irritation / tolerability [1]: may be irritating for sensitive skin
